From ChEMBL document CHEMBL1201862, “PubChem BioAssay data set” (2004)
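96-well plates; 48 h exposure; 5 concentrations. Endpoints by linear interpolation between flanking doses. Not reached: highest tested concentration assigned. GI50 = concentration required for 50% inhibition of growth.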 Active and inactive are the calls of the source. No stated cut-off is given here; in the data, active = GI50 up to about 1.1 µM and inactive = higher.

Tests used:
Test in all cases: inhibition of tumour cell growth, NCI panel, 48 h
786-0 = system: 786-0
DU-145 = system: DU-145
HCC 2998 = system: HCC 2998
HOP-92 = system: HOP-92
HT-29 = system: HT-29
K562 = system: K562
MDA-MB-435 = system: MDA-MB-435
MDA-N = system: MDA-N
Malme-3M = system: Malme-3M
NCI-H23 = system: NCI-H23
NCI-H460 = system: NCI-H460
OVCAR-5 = system: OVCAR-5
OVCAR-8 = system: OVCAR-8
RPMI-8226 = system: RPMI-8226
SK-MEL-28 = system: SK-MEL-28
SK-MEL-2 = system: SK-MEL-2
SNB-19 = system: SNB-19
SW-620 = system: SW-620
TK-10 = system: TK-10
U-251 = system: U-251

Row | SMILES | GI50 (786-0) | GI50 (DU-145) | GI50 (HCC 2998) | GI50 (HOP-92) | GI50 (HT-29) | GI50 (K562) | GI50 (MDA-MB-435) | GI50 (MDA-N) | GI50 (Malme-3M) | GI50 (NCI-H23) | GI50 (NCI-H460) | GI50 (OVCAR-5) | GI50 (OVCAR-8) | GI50 (RPMI-8226) | GI50 (SK-MEL-28) | GI50 (SK-MEL-2) | GI50 (SNB-19) | GI50 (SW-620) | GI50 (TK-10) | GI50 (U-251)
1 | CO[C@@H]1C[C@H]2N3CC[C@@]2(c2cc4c(cc2C3)OCO4)[C@H]2O[C@@H]12 | > 100 µM (inactive) | > 100 µM (inactive) | > 100 µM (inactive) | > 100 µM (inactive) | > 100 µM (inactive) | > 100 µM (inactive) | > 100 µM (inactive) | > 100 µM (inactive) | > 100 µM (inactive) | > 100 µM (inactive) | > 100 µM (inactive) | > 100 µM (inactive) | > 100 µM (inactive) | > 100 µM (inactive) | > 100 µM (inactive) | > 100 µM (inactive) | > 100 µM (inactive) | > 100 µM (inactive) | > 100 µM (inactive) | > 100 µM (inactive)
2 | Brc1cc2nn(-c3ccccc3)nc2c2nonc12 | > 100 µM (inactive) | > 100 µM (inactive) | > 100 µM (inactive) | > 100 µM (inactive) | > 100 µM (inactive) | > 100 µM (inactive) | > 100 µM (inactive) | > 100 µM (inactive) | > 100 µM (inactive) | > 100 µM (inactive) | > 100 µM (inactive) | > 100 µM (inactive) | > 100 µM (inactive) | > 100 µM (inactive) | > 100 µM (inactive) | > 100 µM (inactive) | > 100 µM (inactive) | > 100 µM (inactive) | > 100 µM (inactive) | > 100 µM (inactive)
3 | O=[N+]([O-])c1ccc2c(c1)Nc1c3ccccc3nc3cccc-2c13 | 1.02 µM (active) | 0.593 µM (active) | 0.183 µM (active) | 4.73 µM (inactive) | 3.1 µM (inactive) | 2.1 µM (inactive) | 4.23 µM (inactive) | 3.62 µM (inactive) | 2 µM (inactive) | 4.85 µM (inactive) | 0.789 µM (active) | 6.93 µM (inactive) | 1.17 µM (inactive) | 4.49 µM (inactive) | 6.52 µM (inactive) | 15 µM (inactive) | 17.3 µM (inactive) | 2.13 µM (inactive) | 5.38 µM (inactive) | 3.18 µM (inactive)
4 | COc1ccc(/C=C\c2cc(OC)c(OC)c(OC)c2)cc1OC | 0.198 µM (active) | 0.286 µM (active) | 0.134 µM (active) | 9.66 µM (inactive) | 0.124 µM (active) | 0.12 µM (active) | 0.0184 µM (active) | 0.0165 µM (active) | 0.0746 µM (active) | 0.216 µM (active) | 0.142 µM (active) | 12.2 µM (inactive) | 0.153 µM (active) | 0.162 µM (active) | 0.143 µM (active) | 0.0641 µM (active) | 0.153 µM (active) | 0.149 µM (active) | 0.186 µM (active) | 0.117 µM (active)
5 | COc1cc2cc[n+](C)c(Cc3ccc(Oc4cc(Cc5c6cc(OC)c(OC)cc6cc[n+]5C)ccc4OC)cc3)c2cc1OC | > 100 µM (inactive) | > 100 µM (inactive) | > 100 µM (inactive) | > 100 µM (inactive) | > 100 µM (inactive) | > 100 µM (inactive) | > 100 µM (inactive) | > 100 µM (inactive) | > 100 µM (inactive) | > 100 µM (inactive) | > 100 µM (inactive) | > 100 µM (inactive) | > 100 µM (inactive) | > 100 µM (inactive) | > 100 µM (inactive) | > 100 µM (inactive) | > 100 µM (inactive) | > 100 µM (inactive) | 40.3 µM (inactive) | > 100 µM (inactive)
